# From patent publication US20100234832A1, “METHOD FOR VASCULAR TREATMENT” (priority 2009, published 2010)
# System: femoral nerve
# Assay: Femoral nerve block with lidocaine injected under echographic/ultrasound control
# Type: in vivo, human
# Protocol: To accomplish femoral nerve block, an appropriate amount of local anesthetic is injected in the vicinity of femoral nerve close to the femoral artery under ultrasound control. After anesthesia takes effect, a needle is inserted through the skin into the vein to be treated and an optical fiber is introduced inside it. A typical procedure to carry out this task is to insert a guide wire inside the vein through needle's lumen, after the anesthesia has been introduced and takes effect. Once the guide wire is inserted, a dilator is used to slightly increase the size of the punction made onto the skin, in order to accomplish an easy catheter insertion. After catheter is inserted, guide wire is extracted and optical fiber is inserted through the catheter inside the vein and is advanced to the desired start position.
# A main objective of this femoral block is to achieve sensory nerve function for blockage only, thus the least amount of lidocaine used yields the least probability for motor function to be affected. […] As a consequence, there is some minimal amount needed, which might differ by patient and procedure for an adequate and complete sensory block.
# Lidocaine solutions much above 0.5% are thus not preferred, as the likelihood of concomitant loss of motor control along with the desired sensory blockage becomes too great, rendering patient recovery period longer. Concentration of other local anesthetics, with differing activity, would have a somewhat different effective range of preferred use.
# A safe and effective femoral block procedure is achieved by sequentially carrying out the following steps: • 1. Attach monitors and if necessary give light sedation. • 2. Put patient in supine position with the operative leg slightly abducted. • 3. Prepare the groin. • 4. Place a transducer with the appropriate frequency range (10-12 MHz) along the inguinal crease. If the femoral artery and nerve are deep (>4 cm), use a 7 MHz transducer. • 5. Optimize machine imaging capability; select appropriate depth of e d (usually within 1-3 cm), focus range and gain. • 6. Identify the femoral artery. […]
smiles,measurement,setting,value
CCN(CC)CC(=O)Nc1c(C)cccc1C [lidocaine],anesthetic effect (sensory femoral nerve block),"0.1% lidocaine, femoral block",functioned well
same,motor function blockage,"20 ml of 1% lidocaine, femoral block",also blocked motor function
same,femoral block,"20 ml of lidocaine, concentration 0.1% to 0.5%, injected under echographic control",accomplish the femoral block
